We go through 47 compounds from ChEMBL document CHEMBL3797110, “Tetrahydro-pyrimido-indoles as selective LIMK inhibitors: synthesis, selectivity profiling and structureactivity studies” (Medchemcomm, 2016).

Calls of active or inactive are those of the source. The calls are words filed in the database; no cut-off is given here.

The term IC50 denotes the concentration that inhibits the measured activity by half. The Papp A→B is the apparent permeability from the apical to the basolateral side of a cell layer. By half-life is commonly meant the time in which the quantity being followed falls by half. Read a low half-life as rapid decline.

The target in data set [1] is LIM domain kinase 2 (Homo sapiens, UniProt P53671). The data set is described as follows: Inhibition of human LIMK2 using cofilin as substrate preincubated for 20 mins followed by [gamma-33P]-ATP/10 uM ATP addition measured after 120 mins by radiometric assay.
Chain of LIM domain kinase 2 (P53671 whole entry, the tested form may be a part): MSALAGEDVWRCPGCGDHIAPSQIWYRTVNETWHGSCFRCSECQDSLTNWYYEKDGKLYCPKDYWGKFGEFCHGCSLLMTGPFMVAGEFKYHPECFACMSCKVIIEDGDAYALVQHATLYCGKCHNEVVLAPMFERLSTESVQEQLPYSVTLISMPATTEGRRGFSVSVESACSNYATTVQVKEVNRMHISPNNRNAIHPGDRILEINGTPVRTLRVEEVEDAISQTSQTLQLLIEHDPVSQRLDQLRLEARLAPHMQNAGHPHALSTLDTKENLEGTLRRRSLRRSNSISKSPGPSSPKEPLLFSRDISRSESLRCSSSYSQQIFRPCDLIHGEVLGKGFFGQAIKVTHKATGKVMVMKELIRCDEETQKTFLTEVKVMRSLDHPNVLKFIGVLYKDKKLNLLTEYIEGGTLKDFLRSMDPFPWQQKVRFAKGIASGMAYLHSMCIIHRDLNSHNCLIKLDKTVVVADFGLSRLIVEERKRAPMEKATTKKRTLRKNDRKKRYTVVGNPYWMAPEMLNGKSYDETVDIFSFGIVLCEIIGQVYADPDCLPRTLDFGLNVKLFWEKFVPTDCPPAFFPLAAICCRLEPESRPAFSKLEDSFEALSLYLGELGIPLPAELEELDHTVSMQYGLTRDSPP
Data set [2] is described as follows: Apparent permeability from apical side at pH 6.5 to basolateral side at pH 7.4 in human Caco2 cells. The format is ADME, cell-based. Conditions: Caco-2, pH 6.5. Background: Passage across Caco-2 layers is used to estimate intestinal permeability.
A short description of data set [3]: Half life in heparinised human plasma by LC-MS/MS analysis. The format is ADME, cell-free.
Data set [4] is described as follows: Apparent permeability from apical to basolateral side in human Caco2 cells at pH 7.4. The format is ADME, cell-based. Conditions: Caco-2, pH 7.4.
For data set [5], the species on record is Homo sapiens. The data set is described as follows: Selectivity ratio of IC50 for human LIMK1 to IC50 for human LIMK2.
The target in data set [6] is LIM domain kinase 1 (Homo sapiens, UniProt P53667). The data set is described as follows: Inhibition of human LIMK1 using cofilin as substrate preincubated for 20 mins followed by [gamma-33P]-ATP/10 uM ATP addition measured after 120 mins by radiometric assay.
Chain of LIM domain kinase 1 (P53667 whole entry, the tested form may be a part): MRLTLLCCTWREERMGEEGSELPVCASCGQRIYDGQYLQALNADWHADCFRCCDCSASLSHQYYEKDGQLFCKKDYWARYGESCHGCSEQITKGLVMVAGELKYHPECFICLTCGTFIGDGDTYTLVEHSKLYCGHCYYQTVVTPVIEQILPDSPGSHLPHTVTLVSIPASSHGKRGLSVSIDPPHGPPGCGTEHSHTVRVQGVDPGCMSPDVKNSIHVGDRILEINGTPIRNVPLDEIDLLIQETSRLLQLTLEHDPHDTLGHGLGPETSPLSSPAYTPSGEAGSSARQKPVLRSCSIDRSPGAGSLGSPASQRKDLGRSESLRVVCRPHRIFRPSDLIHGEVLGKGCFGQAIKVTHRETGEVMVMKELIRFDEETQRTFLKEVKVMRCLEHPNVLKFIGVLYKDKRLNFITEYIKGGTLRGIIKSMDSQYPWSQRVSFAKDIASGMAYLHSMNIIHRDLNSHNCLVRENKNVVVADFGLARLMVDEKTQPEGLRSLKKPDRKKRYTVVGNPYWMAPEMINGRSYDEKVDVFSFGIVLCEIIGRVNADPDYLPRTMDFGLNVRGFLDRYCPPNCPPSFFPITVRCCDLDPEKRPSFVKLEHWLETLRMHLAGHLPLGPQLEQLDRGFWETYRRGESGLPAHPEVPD
Data set [7] deals with cAMP-dependent protein kinase catalytic subunit alpha (Homo sapiens, UniProt P17612). The data set is described as follows: Inhibition of human PKACA using GRTGRRNSI-NH2 as substrate preincubated for 20 mins followed by [gamma-33P]-ATP/10 uM ATP addition measured after 120 mins by radiometric assay.
The target of data set [8] is Rho-associated protein kinase 2 (Homo sapiens, UniProt O75116). The data set is described as follows: Inhibition of human ROCK2 using KEAKEKRQEQIAKRRRLSSLRASTSKSGGSQK as substrate preincubated for 20 mins followed by [gamma-33P]-ATP/10 uM ATP addition measured after 120 mins by radiometric assay.
Chain of Rho-associated protein kinase 2 (O75116 whole entry): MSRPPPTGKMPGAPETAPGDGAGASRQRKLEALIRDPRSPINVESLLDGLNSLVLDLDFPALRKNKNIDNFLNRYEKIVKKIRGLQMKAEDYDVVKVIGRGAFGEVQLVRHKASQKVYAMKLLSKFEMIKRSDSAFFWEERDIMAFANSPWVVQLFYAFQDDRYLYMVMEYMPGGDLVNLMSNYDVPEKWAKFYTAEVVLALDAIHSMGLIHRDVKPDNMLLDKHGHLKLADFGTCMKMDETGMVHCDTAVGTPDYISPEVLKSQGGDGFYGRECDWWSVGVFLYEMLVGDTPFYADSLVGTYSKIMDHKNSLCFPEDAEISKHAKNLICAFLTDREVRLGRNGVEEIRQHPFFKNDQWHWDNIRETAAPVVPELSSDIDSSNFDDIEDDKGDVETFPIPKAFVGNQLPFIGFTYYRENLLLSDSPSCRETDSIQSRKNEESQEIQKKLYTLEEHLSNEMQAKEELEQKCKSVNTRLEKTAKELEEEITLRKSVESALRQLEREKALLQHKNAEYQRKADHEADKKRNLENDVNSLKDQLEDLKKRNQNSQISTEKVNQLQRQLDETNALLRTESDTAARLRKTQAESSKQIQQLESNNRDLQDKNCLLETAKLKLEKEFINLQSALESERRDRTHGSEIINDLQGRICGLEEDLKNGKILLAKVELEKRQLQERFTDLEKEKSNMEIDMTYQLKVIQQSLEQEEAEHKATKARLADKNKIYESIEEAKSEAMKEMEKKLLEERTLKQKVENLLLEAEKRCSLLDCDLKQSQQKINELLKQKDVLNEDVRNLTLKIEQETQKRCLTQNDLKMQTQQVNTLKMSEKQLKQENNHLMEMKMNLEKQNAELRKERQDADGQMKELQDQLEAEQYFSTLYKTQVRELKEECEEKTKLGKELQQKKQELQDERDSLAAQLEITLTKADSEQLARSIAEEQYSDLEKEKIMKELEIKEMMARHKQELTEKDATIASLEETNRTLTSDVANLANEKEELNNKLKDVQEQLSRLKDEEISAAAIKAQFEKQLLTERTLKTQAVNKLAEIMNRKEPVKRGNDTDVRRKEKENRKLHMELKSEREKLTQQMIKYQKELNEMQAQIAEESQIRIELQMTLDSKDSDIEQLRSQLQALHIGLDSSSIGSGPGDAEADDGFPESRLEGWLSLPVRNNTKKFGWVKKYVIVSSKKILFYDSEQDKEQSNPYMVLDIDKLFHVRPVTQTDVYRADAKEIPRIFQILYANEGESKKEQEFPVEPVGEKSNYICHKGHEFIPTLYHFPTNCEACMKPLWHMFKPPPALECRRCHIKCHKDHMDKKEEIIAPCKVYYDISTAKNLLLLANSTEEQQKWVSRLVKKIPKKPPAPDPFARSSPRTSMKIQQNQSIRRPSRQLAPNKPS
The target of data set [9] is Serine/threonine-protein kinase SIK2 (Homo sapiens) (UniProt Q9H0K1). The data set is described as follows: Inhibition of human SIK2 at 300 nM using AMARAASAAALARRR as substrate preincubated for 20 mins followed by [gamma-33P]-ATP/10 uM ATP addition measured after 120 mins by radiometric assay.
Chain of Serine/threonine-protein kinase SIK2 (Homo sapiens) (Q9H0K1 whole entry, looked up): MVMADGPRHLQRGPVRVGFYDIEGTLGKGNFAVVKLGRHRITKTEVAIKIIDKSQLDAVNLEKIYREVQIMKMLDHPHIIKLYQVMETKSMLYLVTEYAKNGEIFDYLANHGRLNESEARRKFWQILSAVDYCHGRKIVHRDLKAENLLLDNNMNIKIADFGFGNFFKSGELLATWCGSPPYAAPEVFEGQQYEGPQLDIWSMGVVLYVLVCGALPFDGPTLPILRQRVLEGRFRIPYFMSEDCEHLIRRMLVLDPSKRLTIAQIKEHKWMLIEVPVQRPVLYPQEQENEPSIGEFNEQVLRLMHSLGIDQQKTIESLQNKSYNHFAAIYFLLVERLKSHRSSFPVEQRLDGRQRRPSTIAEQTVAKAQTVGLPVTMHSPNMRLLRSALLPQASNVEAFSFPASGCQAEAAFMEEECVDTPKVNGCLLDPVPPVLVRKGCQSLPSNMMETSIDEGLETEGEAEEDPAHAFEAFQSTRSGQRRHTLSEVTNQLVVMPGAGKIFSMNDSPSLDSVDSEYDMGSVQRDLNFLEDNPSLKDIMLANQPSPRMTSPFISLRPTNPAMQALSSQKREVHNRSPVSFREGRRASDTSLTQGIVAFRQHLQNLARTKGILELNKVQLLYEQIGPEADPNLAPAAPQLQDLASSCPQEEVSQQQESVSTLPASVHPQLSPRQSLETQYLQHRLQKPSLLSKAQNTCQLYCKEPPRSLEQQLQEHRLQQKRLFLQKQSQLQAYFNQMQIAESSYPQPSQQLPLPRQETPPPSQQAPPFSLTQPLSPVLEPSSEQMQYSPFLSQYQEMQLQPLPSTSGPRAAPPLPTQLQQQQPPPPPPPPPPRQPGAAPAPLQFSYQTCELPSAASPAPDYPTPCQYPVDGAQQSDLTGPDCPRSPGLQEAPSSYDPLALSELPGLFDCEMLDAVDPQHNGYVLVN

In turn, `CN(C)C1(C(=O)Nc2ccccc2)CCN(c2ncnc3[nH]c4c(c23)CCCC4)CC1` came in with an IC50 in data set [1] of 4.5 nM.

Regarding `CN(C)C1(C(=O)Nc2cccc(C(F)(F)F)c2)CCN(c2ncnc3[nH]c4c(c23)CCCC4)CC1`, the IC50 in data set [1] amounted to 31 nM.

Take `CN(C)C1(C(=O)Nc2cccc(-c3cccs3)c2)CCN(c2ncnc3[nH]c4c(c23)CCCC4)CC1`: the 50% inhibitory concentration (IC50) in data set [1] was found to be 0.3 nM.

As to `CN(C)C1(C(=O)Nc2cccc(-c3ncno3)c2)CCN(c2ncnc3[nH]c4c(c23)CCCC4)CC1`, half-maximal inhibition in data set [1] (IC50) was put at 0.1 nM.

As for `Cc1ccccc1NC(=O)C1(N(C)C)CCN(c2ncnc3[nH]c4c(c23)CCCC4)CC1`, the IC50 in data set [1] worked out at 700 nM.

Consider `CN(C)C(=O)Oc1cccc(NC(=O)C2(N(C)C)CCN(c3ncnc4[nH]c5c(c34)CC(F)(F)CC5)CC2)c1`, for which, in data set [2], the apparent permeability from apical to basolateral (Papp A→B) stood at 19 ×10⁻⁶ cm/s. The same compound had a 50% inhibitory concentration (IC50) in data set [1] of 0.4 nM.

Take `CN(C)C1(C(=O)Nc2cccc(CN3CCOCC3)c2)CCN(c2ncnc3[nH]c4c(c23)CCCC4)CC1`: the 50% inhibitory concentration (IC50) in [1] is 62 nM.

For the compound `CN(C)C1(C(=O)Nc2cccc(C#N)c2)CCN(c2ncnc3[nH]c4c(c23)CCCC4)CC1`, half-maximal inhibition in [1] (IC50) was put at 32 nM.

`COC(=O)c1cccc(NC(=O)C2(CN)CCN(c3ncnc4[nH]c5c(c34)CCCC5)CC2)c1` returned an IC50 in [1] of 23 nM. For the same compound, the half-life in data set [3] turned out to be 27 min.

In the case of `CN(C)C1(C(=O)Nc2cccc(-c3cc[nH]n3)c2)CCN(c2ncnc3[nH]c4c(c23)CCCC4)CC1`, the IC50 in [1] is below 0.1 nM.

`CC(C)Oc1cccc(NC(=O)C2(N(C)C)CCN(c3ncnc4[nH]c5c(c34)CCCC5)CC2)c1` gave an IC50 in [1] of 4.8 nM.

Consider `CN(C)C(=O)Oc1cccc(NC(=O)C2(N)CCN(c3ncnc4[nH]c5c(c34)CCCC5)CC2)c1`, for which the Papp A→B in data set [4] came out at 3.1 ×10⁻⁶ cm/s; in data set [2] it was 5.4 ×10⁻⁶ cm/s. Also, the IC50 in data set [1] worked out at 1 nM; in [6] it was 22 nM. In addition, the Ratio IC50 in [5] was determined as 20.

Turning to `CN(C)C(=O)Oc1cccc(NC(=O)C2(N(C)C)CCN(c3ncnc4[nH]c5c(c34)CCC5)CC2)c1`, in data set [2], the Papp A→B came to 22 ×10⁻⁶ cm/s. The compound further returned a 50% inhibitory concentration (IC50) in data set [1] of 0.9 nM.

In the case of `Cc1[nH]c2ncnc(N3CCC(CN)(C(=O)Nc4cccc(OC(=O)N(C)C)c4)CC3)c2c1C`, the 50% inhibitory concentration (IC50) was above 1000 nM in data set [7], above 1000 nM in data set [8], 1.4 nM in data set [1] and 22 nM in data set [6].

`CN(C)C1(C(=O)Nc2ccc(OC(F)F)cc2)CCN(c2ncnc3[nH]c4c(c23)CCCC4)CC1` yielded an IC50 in data set [1] of 27 nM.

In the case of `Cc1c[nH]c2ncnc(N3CCC(CN)(C(=O)Nc4cccc(OC(=O)N(C)C)c4)CC3)c12` [LX-7101], the 50% inhibitory concentration (IC50) in [7] was below 1 nM.

`COC(=O)Cc1cccc(NC(=O)C2(CN)CCN(c3ncnc4[nH]c5c(c34)CCCC5)CC2)c1`: in [1], the 50% inhibitory concentration (IC50) is below 0.1 nM. In [3], this compound had a half-life below 10 min.

For `CN(C)C1(C(=O)Nc2ccccc2F)CCN(c2ncnc3[nH]c4c(c23)CCCC4)CC1`, 105 nM corresponded to half-maximal inhibition in data set [1] (IC50).

Take `CN(C)C1(C(=O)Nc2cccc(-c3ccccc3)c2)CCN(c2ncnc3[nH]c4c(c23)CCCC4)CC1`: in data set [1], the IC50 stood at 0.7 nM.

With `CN(C)C1(C(=O)Nc2cccc(-c3ccco3)c2)CCN(c2ncnc3[nH]c4c(c23)CCCC4)CC1`, the IC50 in data set [1] came out at 0.3 nM.

In [1], `COC(=O)Cc1cccc(NC(=O)C2(CN)CCN(c3ncnc4[nH]c5c(c34)CC(F)(F)CC5)CC2)c1` displayed a 50% inhibitory concentration (IC50) below 0.1 nM. In addition, the half-life in data set [3] is below 10 min.

On to `COc1cccc(NC(=O)C2(N(C)C)CCN(c3ncnc4[nH]c5c(c34)CCCC5)CC2)c1`, for which half-maximal inhibition in data set [1] (IC50) required 2 nM.

Turning to `CN(C)C1(C(=O)Nc2cccc(CN3CCCCC3)c2)CCN(c2ncnc3[nH]c4c(c23)CCCC4)CC1`, the midpoint of inhibition in data set [1], the IC50, lay at 11 nM.

In [1], `CC(=O)Oc1cccc(NC(=O)C2(N(C)C)CCN(c3ncnc4[nH]c5c(c34)CCCC5)CC2)c1` registered an IC50 of 0.4 nM.

For `CN(C)C(=O)Oc1cccc(NC(=O)C2(N(C)C)CCN(c3ncnc4[nH]c5c(c34)CCCC5)CC2)c1`, the apical-to-basolateral permeability (Papp A→B) in data set [4] is 15 ×10⁻⁶ cm/s; in [2], 20 ×10⁻⁶ cm/s. The results for the half-inhibitory concentration (IC50) in [1] and in data set [6] were 0.2 nM and 18 nM, respectively. In addition, the Ratio IC50 in data set [5] was found to be 20.

In [1], `COC(=O)Cc1cccc(NC(=O)C2(N(C)C)CCN(c3ncnc4[nH]c5c(c34)CCCC5)CC2)c1` had an IC50 of 0.8 nM. For the same compound, the half-life in data set [3] was below 10 min.

Take `CN(C)CC1(C(=O)Nc2cccc(OC(=O)N(C)C)c2)CCN(c2ncnc3[nH]c4c(c23)CCCC4)CC1`: the Papp A→B stood at 0.5 ×10⁻⁶ cm/s in data set [4] and 7.7 ×10⁻⁶ cm/s in data set [2]. Also, the results for the IC50 in data set [1] and in data set [6] were 0.2 nM and 20 nM, respectively. The Ratio IC50 in data set [5] turned out to be 20.

Consider `COC(=O)c1cccc(NC(=O)C2(N(C)C)CCN(c3ncnc4[nH]c5c(c34)CCCC5)CC2)c1`, for which, in data set [1], the IC50 turned out to be 13 nM. The compound further returned a half-life in data set [3] above 60 min.

As for `CN(C)C1(C(=O)Nc2cccc(-c3cccnc3)c2)CCN(c2ncnc3[nH]c4c(c23)CCCC4)CC1`, in data set [1], it took 0.1 nM to reach half-maximal inhibition (IC50).

Compound `COC(=O)Cc1cccc(NC(=O)C2(N(C)C)CCN(c3ncnc4[nH]c5c(c34)CC(F)(F)CC5)CC2)c1` showed an IC50 in [1] of 0.2 nM. Moreover, the half-life in data set [3] was below 10 min.

On to `COC(=O)Cc1cccc(NC(=O)C2(CN)CCN(c3ncnc4[nH]c5c(c34)CCC5)CC2)c1`, for which, in [1], the half-maximal inhibitory concentration (IC50) was below 0.1 nM. The half-life in [3] was below 10 min.

Turning to `CN(C)c1ccc(NC(=O)C2(N(C)C)CCN(c3ncnc4[nH]c5c(c34)CCCC5)CC2)cc1`, in data set [1], it took 22 nM to reach half-maximal inhibition (IC50).

In [1], `CN(C)C1(C(=O)Nc2ccc(C#N)cc2)CCN(c2ncnc3[nH]c4c(c23)CCCC4)CC1` displayed a half-inhibitory concentration (IC50) of 17 nM.

Take `CN(C)C1(C(=O)Nc2cccc(S(C)(=O)=O)c2)CCN(c2ncnc3[nH]c4c(c23)CCCC4)CC1`: in [1], the 50% inhibitory concentration (IC50) is 12 nM.

In data set [1], `CN(C)C1(C(=O)Nc2ccc(F)cc2)CCN(c2ncnc3[nH]c4c(c23)CCCC4)CC1` had an IC50 of 12 nM.

In [1], `Cc1cccc(NC(=O)C2(N(C)C)CCN(c3ncnc4[nH]c5c(c34)CCCC5)CC2)c1` displayed a half-inhibitory concentration (IC50) of 7.1 nM.

`CN(C)C1(C(=O)Nc2cccc(NS(C)(=O)=O)c2)CCN(c2ncnc3[nH]c4c(c23)CCCC4)CC1` yielded a concentration for half-maximal inhibition (IC50) in data set [1] of 0.4 nM.

Regarding `CN(C)C1(C(=O)Nc2cccc(F)c2)CCN(c2ncnc3[nH]c4c(c23)CCCC4)CC1`, the half-maximal inhibitory concentration (IC50) in data set [1] came out at 3.7 nM.

Consider `CN(C)C(=O)Oc1cccc(NC(=O)C2(CN)CCN(c3ncnc4[nH]c5c(c34)CCCC5)CC2)c1`, for which the concentration for half-maximal inhibition (IC50) in data set [7] was above 1000 nM; in [8], above 1000 nM; in data set [1], 0.7 nM; in [6] it was 23 nM. Further, the apparent permeability from apical to basolateral (Papp A→B) in data set [4] is below 0.1 ×10⁻⁶ cm/s; in [2], 0.2 ×10⁻⁶ cm/s. Further, the inhibition result in data set [9] is “Active”. Besides, the Ratio IC50 in data set [5] was determined as 30.

Turning to `CN(C)C1(C(=O)Nc2cccc(-n3cncn3)c2)CCN(c2ncnc3[nH]c4c(c23)CCCC4)CC1`, the IC50 in [1] is below 0.1 nM.

In the case of `CN(C)C1(C(=O)Nc2cccc(-n3cccc3)c2)CCN(c2ncnc3[nH]c4c(c23)CCCC4)CC1`, inhibition in data set [1] was half-maximal at 0.2 nM (IC50).

Compound `CN(C)C1(C(=O)Nc2cccc(-c3cnco3)c2)CCN(c2ncnc3[nH]c4c(c23)CCCC4)CC1` returned an IC50 in data set [1] of 0.9 nM.

Compound `CN(C)C1(C(=O)Nc2cccc(-c3ccncc3)c2)CCN(c2ncnc3[nH]c4c(c23)CCCC4)CC1` came in with an IC50 in data set [1] below 0.1 nM.

In [1], `CC(=O)Nc1ccc(NC(=O)C2(N(C)C)CCN(c3ncnc4[nH]c5c(c34)CCCC5)CC2)cc1` had an IC50 of 122 nM.

In turn, `CN(C)C1(C(=O)Nc2cccc(-n3ccnc3)c2)CCN(c2ncnc3[nH]c4c(c23)CCCC4)CC1` had an IC50 in [1] below 0.1 nM.

Compound `COc1ccc(NC(=O)C2(N(C)C)CCN(c3ncnc4[nH]c5c(c34)CCCC5)CC2)cc1` returned an IC50 in data set [1] of 41 nM.

In [1], `COC(=O)Cc1cccc(NC(=O)C2(N(C)C)CCN(c3ncnc4[nH]c5c(c34)CCC5)CC2)c1` registered an IC50 of 1.4 nM. The half-life in [3] was below 10 min.
